According to the supplement of paper PMC10307832:

Legend:
Experiment in all cases: relative viability (nuclei count vs DMSO), 5 days (fraction); higher = more cells survive
AZ505 + Palbociclib = compound: C1CCC(CC1)N(CCNCCC2=C3C(=C(C=C2)O)NC(=O)CO3)C(=O)CCNCCC4=CC(=C(C=C4)Cl)Cl [AZ505] + CC(=O)c1c(C)c2cnc(Nc3ccc(N4CCNCC4)cn3)nc2n(C2CCCC2)c1=O [Palbociclib] (partner 0.5 µM)
Summary of the method: (§1)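 One day after seeding in 1536-well plates, lung cancer cell lines were dosed by pin tool. Dosing was either single-drug or a fixed anchor-drug dose plus five library-drug doses (not always all listed) in √10 steps. After 5 days, nuclei were stained in one fix-and-stain step and counted on 4× images, and relative viability is the nuclei count of treated wells over that of vehicle wells, given as the median of duplicate plates.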

Dactolisib + Palbociclib = compound: Cn1c(=O)n(-c2ccc(C(C)(C)C#N)cc2)c2c3cc(-c4cnc5ccccc5c4)ccc3ncc21 [Dactolisib] + CC(=O)c1c(C)c2cnc(Nc3ccc(N4CCNCC4)cn3)nc2n(C2CCCC2)c1=O [Palbociclib] (partner 0.5 µM)
Summary of the method: as §1

AZ505 + AZD7762 = compound: C1CCC(CC1)N(CCNCCC2=C3C(=C(C=C2)O)NC(=O)CO3)C(=O)CCNCCC4=CC(=C(C=C4)Cl)Cl [AZ505] + NC(=O)Nc1cc(-c2cccc(F)c2)sc1C(=O)N[C@H]1CCCNC1 [AZD7762] (partner 0.2 µM)
Summary of the method: as §1

AZ505 + Luminespib = compound: C1CCC(CC1)N(CCNCCC2=C3C(=C(C=C2)O)NC(=O)CO3)C(=O)CCNCCC4=CC(=C(C=C4)Cl)Cl [AZ505] + CCNC(=O)c1noc(-c2cc(C(C)C)c(O)cc2O)c1-c1ccc(CN2CCOCC2)cc1 [Luminespib] (partner 0.01 µM)
Summary of the method: as §1

Cell Line	relative viability (AZ505 + Palbociclib; first compound 0.08 µM)	relative viability (AZ505 + Palbociclib; first compound 0.253 µM)	relative viability (AZ505 + Palbociclib; first compound 0.8 µM)	relative viability (AZ505 + Palbociclib; first compound 2.53 µM)	relative viability (AZ505 + Palbociclib; first compound 8 µM)	relative viability (Dactolisib + Palbociclib; first compound 0.002 µM)	relative viability (Dactolisib + Palbociclib; first compound 0.006325 µM)	relative viability (Dactolisib + Palbociclib; first compound 0.02 µM)	relative viability (Dactolisib + Palbociclib; first compound 0.06325 µM)	relative viability (Dactolisib + Palbociclib; first compound 0.2 µM)	relative viability (AZ505 + AZD7762; first compound 0.08 µM)	relative viability (AZ505 + AZD7762; first compound 0.253 µM)	relative viability (AZ505 + AZD7762; first compound 0.8 µM)	relative viability (AZ505 + AZD7762; first compound 2.53 µM)	relative viability (AZ505 + AZD7762; first compound 8 µM)	relative viability (AZ505 + Luminespib; first compound 0.08 µM)	relative viability (AZ505 + Luminespib; first compound 0.253 µM)	relative viability (AZ505 + Luminespib; first compound 0.8 µM)	relative viability (AZ505 + Luminespib; first compound 2.53 µM)	relative viability (AZ505 + Luminespib; first compound 8 µM)
HCC-44	0.966	1.03	0.945	0.976	0.91	1.04	1.02	1.01	0.99	0.919	1	0.964	0.916	1.03	1.02	0.969	1.03	1.03	1.09	1.18
HCC-827	0.416	0.551	0.374	0.509	0.525	0.473	0.518	0.47	0.36	0.171	0.25	0.163	0.49	0.204	0.263	0.731	1.03	0.683	0.532	1.11
NCI-H1623																0.604	0.46	0.58	0.503	0.681
NCI-H2347	0.37	0.451	0.38	0.448	0.485	0.505	0.448	0.401	0.402	0.358	0.548	0.659	0.554	0.553	0.578	0.32				0.494
PC-14	0.402	0.439	0.456	0.471	0.595	0.654	0.487	0.446	0.0827	0.0725	0.366	0.317	0.391	0.354	0.372	0.135	0.215	0.135	0.145	0.132
NCI-H1651	0.512	0.517	0.502	0.498	0.523	0.532	0.487	0.463	0.348	0.231	0.43	0.412	0.472	0.467	0.48	0.78	0.881	0.736	0.841	0.944
HARA	0.198	0.266	0.185	0.218	0.224	0.304	0.233	0.301	0.233	0.188	0.354		0.33	0.693	0.351	0.622	0.32	0.444	0.628	0.324
NCI-H1650	0.34	0.412	0.278	0.35	0.317	0.357	0.348	0.298	0.191	0.142						0.206	0.227	0.202	0.19	0.199
NCI-H1395	0.593		0.638	0.661	0.686	0.558	0.589	0.556	0.452	0.419	0.407		0.413	0.386	0.382	0.618	0.752	0.693	0.696	0.66
